{"source": "patent US11213509B2", "about": "“Compositions and methods for treating traumatic brain injury” (Ischemix, LLC, priority 2017, dated 2022)", "format_in_all_cases": "in vivo", "key": {"[1]": {"system": "lipid peroxidation (4-HNE)", "assay": "Lipid peroxidation by 4-hydroxynonenal (4-HNE) Western blot, focal TBI model in piglets", "conditions": "cortical penumbra, ipsilateral; vs placebo, p<0.001", "experimental": "(§1) Study Design: A blinded, placebo controlled proof of concept trial of CMX-2043 was conducted in four-week-old piglets (8-10 kg). […] Sixteen piglets (n=16) were designated into three cohorts: 1) Controlled cortical impact (CCI) at the rostral gyrus treated with a bolus of CMX-2043 (n=5), 2) CCI injured animals treated with placebo (n=5) and 3) sham animals (n=6). CMX-2043 treated animals received an intravenous loading bolus of CMX-2043 (13.4 mg/kg) 1 hour post-TBI and a 4.5 mg/kg bolus at 13 hours post-TBI. Subjects were intubated, ventilated and anesthesia maintained on isoflurane (1.0%). Buprenorphine (0.02 mg/kg IM) was administered for analgesia immediately following intubation. Monitors recorded oxygen saturation, heart rate, respiration rate, rectal temperature, and end tidal CO2. […] All piglets were sacrificed between 24-25 hours post-TBI.\nSamples from the same ipsilateral injured region analyzed for mtROS were analyzed for oxidative damage by measuring 4-HNE as an assessment of lipid peroxidation by Western Blot analysis (EMD Millipore), normalized by GAPDH (EMD Millipore), and compared to placebo and shams."}, "[2]": {"system": "mitochondrial reactive oxygen species generation (mtROS)", "assay": "Mitochondrial reactive oxygen species generation 24 hours post-CCI, focal TBI model in piglets", "conditions": "p<0.0001 vs placebo", "experimental": "as §1\nMitochondrial Respiration and ROS Production: Twenty four hours post-CCI the ipsilateral penumbra and mirrored contralateral cortex were harvested. The rate of oxygen consumption was recorded via high-resolution Oroboros Oxygraph-2k™ with a specific Substrate-Uncouple-Inhibitor-Titration Protocol (SUIT). […] Maximal reserve capacity of the electron transfer system (ETSCI+CII) was measured by titrating the protonophore carbonyl cyanide p-(trifluoro-methoxy) phenylhydrazone (FCCP). […]"}, "[3]": {"assay": "Body weight and post-operative observations, rat model of focal TBI (BCCI)", "excerpt": "Adult, male, Spague-Dawley rats from Charles River were used. Animals were received at PsychoGenics and assigned unique identification numbers (tails marked). Animals were housed 2 per cage in polycarbonate rat cages equipped with microisolators and acclimated for up to 7 days. All rats were examined, handled, and weighed prior to initiation of the study to assure adequate health and suitability. During the course of the study, 12/12 light/dark cycles were maintained. The room temperature was maintained between 20 and 23° C. with a relative humidity maintained around 50%. Chow and water were provided ad libitum for the duration of the study. Animals were randomly assigned across treatment groups.\nBCCI TBI to the medial frontal cortex (MFC) was induced by a cortical contusion device (Custom Design & Fabrication, Inc [CDF], Richmond, Va.). This device creates a reliable contusion injury to the exposed area of the brain with a brass-tipped impounder. (Hoffman et al., 1994). Rats were anesthetized with isoflurane (5%) (Novaplus™), and 02 (300 cm^3/min), and mounted in a stereotaxic frame. […]\n(§2) Data are presented as mean±SEM and analyzed by one-way repeated measures Analysis of variance (ANOVA) in order to test the effects of treatment on beam balance times and Morris water maze performance. […]"}, "[4]": {"system": "rat model of focal TBI", "assay": "Beam balance test, rat model of focal TBI (BCCI)", "excerpt": "BCCI TBI to the medial frontal cortex (MFC) was induced by a cortical contusion device (Custom Design & Fabrication, Inc [CDF], Richmond, Va.). This device creates a reliable contusion injury to the exposed area of the brain with a brass-tipped impounder. (Hoffman et al., 1994). Rats were anesthetized with isoflurane (5%) (Novaplus™), and 02 (300 cm^3/min), and mounted in a stereotaxic frame. Under aseptic conditions, a sagittal incision was made in the scalp and the fascia retracted to expose the cranium. Then, a 6-mm diameter trephine drill was used to open the skull immediately anterior to the bregma. TBI of the MFC was made with a 5-mm-diameter rounded brass impactor attached to a computer-controlled piston propelled electronically with following parameters: velocity=2.5 m/s; depth=3 mm; duration=100 ms). After BCCI, any cortical surface hemorrhaging was controlled and the fascia and scalp sutured. […]\nThe beam balance test examined vestibulomotor reflex activity of the animals after injury. […] The animal was gently placed on a suspended narrow beam 1.5 cm wide with a rough surface and the duration for which it remained on the beam was measured with a maximum cutoff time of 60 sec. […]\nas §2"}}}
{"molecule": "CC(NC(=O)C(CCC(=O)O)NC(=O)CCCCC1CCSS1)C(=O)O", "note": "[CMX-2043, N—(R)-lipoyl-glutamylalanine]", "values": [{"measurement": "Lipid peroxidation (4-HNE)", "setting": "[1]", "result": "significant reduction in lipid peroxidation"}, {"measurement": "Mitochondrial ROS (mtROS) generation", "setting": "[2]; contralateral", "result": "5.13±1.67 H2O2/(μmol O2/s*mg)"}, {"measurement": "Mitochondrial ROS (mtROS) generation", "setting": "[2]; ipsilateral", "result": "8.28±1.47 H2O2/(μmol O2/s*mg)"}, {"measurement": "Body weight / weight gain", "setting": "[3]; 30 mg/kg IV at 30 minutes and about 24 hrs after injury, vs saline", "result": "no adverse effects on weight gain"}, {"measurement": "Survival (deaths within 24 hours post-injury)", "setting": "[3]; 30 mg/kg IV, TBI-injured rats", "result": "9 surviving animals of the 11 animals treated"}, {"measurement": "Treatment efficacy in beam balance motor test", "setting": "[4]; 30 mg/kg intravenously", "result": "not in the beam balance motor test"}, {"measurement": "Beam balance time", "setting": "[4]; Day 3 following injury, 30 mg/kg IV, all groups", "result": "less than 3 seconds"}]}
